What was measured:
[1] = biological target: T1, Recombinant human IKK1 (Homo sapiens, UniProt O15111); test: IKK1 time-resolved fluorescence resonance energy transfer assay; type: biochemical; details: IKK2 assay and IKK2 time dependent assay versus IKK1 TR-FRET assay
T1 construct: Recombinant human IKK1 (residues 1-785); 6HIS (C); made in house
T1 sequence (O15111 1-745): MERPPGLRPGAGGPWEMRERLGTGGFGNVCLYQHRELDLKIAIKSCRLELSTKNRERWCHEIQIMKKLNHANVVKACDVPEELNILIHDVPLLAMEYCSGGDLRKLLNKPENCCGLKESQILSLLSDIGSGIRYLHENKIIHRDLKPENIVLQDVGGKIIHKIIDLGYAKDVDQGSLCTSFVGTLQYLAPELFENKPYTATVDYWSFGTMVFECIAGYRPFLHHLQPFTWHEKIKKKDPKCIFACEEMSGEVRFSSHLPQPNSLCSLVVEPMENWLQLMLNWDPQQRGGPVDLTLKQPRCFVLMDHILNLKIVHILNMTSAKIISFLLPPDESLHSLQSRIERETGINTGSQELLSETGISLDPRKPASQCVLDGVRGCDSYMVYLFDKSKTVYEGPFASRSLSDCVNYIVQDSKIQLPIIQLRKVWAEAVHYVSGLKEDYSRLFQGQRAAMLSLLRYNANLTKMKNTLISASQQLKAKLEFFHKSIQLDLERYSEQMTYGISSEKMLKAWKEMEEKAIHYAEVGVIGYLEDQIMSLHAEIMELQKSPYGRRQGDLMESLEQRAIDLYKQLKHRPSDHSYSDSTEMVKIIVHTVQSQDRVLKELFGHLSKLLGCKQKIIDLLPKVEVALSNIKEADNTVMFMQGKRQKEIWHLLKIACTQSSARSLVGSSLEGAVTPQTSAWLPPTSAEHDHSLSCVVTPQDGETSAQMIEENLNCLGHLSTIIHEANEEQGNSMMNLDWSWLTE
Description: Recombinant human IKK1 (residues 1-785) was expressed in baculovirus as a C-terminal 6HIS-tagged fusion protein, and its activity was assessed using a time-resolved fluorescence resonance energy transfer (TR-FRET) assay. Briefly, IKK1 (typically 5-10 nM final) diluted in assay buffer (50 mM HEPES, 10 mM MgCl2, 1 mM CHAPS pH 7.4 with 1 mM DTT and 0.01% w/v BSA) was added to wells containing various concentrations of compound or DMSO vehicle (1.7% v/v final). The reaction was initiated by the addition of GST-IκBα substrate (25 nM final)/ATP (1 μM final), in a total volume of 6 μl. The reaction was incubated for 15 minutes at room temperature, then terminated by the addition of stop reagent (3 μl) containing 50 mM EDTA and detection reagents in buffer (100 mM HEPES pH 7.4, 150 mM NaCl and 0.01% w/v BSA). […] The degree of phosphorylation of GST-IκBα was measured using a suitable time-resolved fluorimeter such as Packard Discovery (Perkin-Elmer Life Sciences, Pangbourne, Berkshire, UK), Wallac Viewlux (Perkin-Elmer Life Sciences, Pangbourne, Berkshire, UK), Envision (Perkin-Elmer Life Sciences, Pangbourne, Berkshire, UK), or Rubystar (BMG, Aylesbury, Buckinghamshire, UK) as a ratio of specific 665 nm energy transfer signal to reference europium 620 nm signal.

[2] = system: LPS induced neutrophilia; test: Inhaled LPS induced neutrophilia in the male CD rat; type: in vivo; details: dose of 300 ug/kg i.t.
Description: Male CD rats (150-250 g) were anaesthetised with isoflurane (5%, 2 L/min O2, 1 L/min […]) and positioned on their back on a dosing table at a 35 degree angle, with a metal rod placed under their incisors to keep them in place. A light was angled against the outside of the throat to highlight the trachea. The mouth was opened to visualise the upper opening of the airway and a portex cannula was introduced into the trachea via a blunt dosing needle. 200 ul of compound formulation was then injected into the airways. After dosing, animals were placed in a supine position during recovery from anaesthesia.
Approximately thirty minutes following dosing of compound or vehicle, the rats were placed into a cloud chamber and exposed to an aerosol of lipopolysaccharide, generated from a 150 ug/ml solution for 15 min.
Four hours following LPS challenge the animals were culled with an overdose of sodium pentobarbitone given intraperitoneally. The trachea was exposed and a small incision made, into which a tube was inserted towards the lungs. The lungs were then washed with 3 times with 5 mls heparinised (10 U/ml) PBS.
The bronchoalveolar lavage fluid (BALF) samples were centrifuged at 1300 rpm for 7 minutes. […] The total cells were also counted from the resuspension using a Sysmex counter. From these two counts, the total numbers of neutrophils in the BALF were determined.

Structure (SMILES): COCCS(=O)(=O)N1CCC(c2c[nH]c3c(C(N)=O)cc(-c4ccc5c(c4)CN(C(C)C)C5)cc23)CC1 [Compound of formula (I), 5-[2-(1-methylethyl)-2,3-dihydro-1H-isoindol-5-yl]-3-(1-{[2-(methyloxy)ethyl]sulfonyl}-4-piperidinyl)-1H-indole-7-carboxamide]
- potency at IKK2 relative to IKK1 [1]: inhibited IKK2 with greater potency than IKK1
- inhibition of LPS induced neutrophilia [2]: greater than 75%

— patent US8354539B2, “Indole derivatives as IKK2 inhibitors” (Glaxo Group Limited, priority 2009, dated 2013)
